Reference: ChEMBL document CHEMBL1201862, “PubChem BioAssay data set” (2004)
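Step 1: Grow cells in 96-well plates. Step 2: Expose to compound for 48 hours at 5 concentrations. Step 3: Interpolate endpoints linearly; if unreached, use highest concentration. GI50 is the concentration that inhibits growth by half.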 Active and inactive are the calls of the source. Rule as the data show it: active = GI50 up to about 1.1 µM and inactive = higher.

Key:
Experiment in all cases: NCI tumour cell line growth inhibition, 48 h
EKVX = system: EKVX
SN12C = system: SN12C
UACC-257 = system: UACC-257
A549 = system: A549
SK-MEL-5 = system: SK-MEL-5
SK-MEL-28 = system: SK-MEL-28
MDA-N = system: MDA-N
KM12 = system: KM12
SR = system: SR
CAKI-1 = system: CAKI-1
SF-268 = system: SF-268
SNB-19 = system: SNB-19
OVCAR-5 = system: OVCAR-5
T47D = system: T47D
LOX IMVI = system: LOX IMVI
HL-60 = system: HL-60
MDA-MB-435 = system: MDA-MB-435
UO-31 = system: UO-31
RPMI-8226 = system: RPMI-8226
NCI-H460 = system: NCI-H460

Measured: GI50

c1n[nH]cc1C12C3C4C5C3C1C5C42 (configuration not stated)
inactive: EKVX 85.7 µM | SN12C > 100 µM | UACC-257 > 100 µM | A549 > 100 µM | SK-MEL-5 > 100 µM | SK-MEL-28 > 100 µM | MDA-N > 100 µM | KM12 > 100 µM | SR > 100 µM | CAKI-1 > 100 µM | SF-268 > 100 µM | SNB-19 > 100 µM | OVCAR-5 94.6 µM | T47D 85.3 µM | LOX IMVI > 100 µM | HL-60 75.9 µM | MDA-MB-435 > 100 µM | UO-31 > 100 µM | RPMI-8226 > 100 µM

Cc1ccc(-c2nnc(CCCCCCCCc3nnc(-c4ccc(C)cc4O)n3N)n2N)c(O)c1
inactive: EKVX > 100 µM | SN12C > 100 µM | UACC-257 > 100 µM | A549 > 100 µM | SK-MEL-28 > 100 µM | MDA-N > 100 µM | KM12 > 100 µM | SR > 100 µM | CAKI-1 > 100 µM | SF-268 > 100 µM | SNB-19 61.8 µM | OVCAR-5 > 100 µM | T47D 56.5 µM | LOX IMVI > 100 µM | HL-60 > 10 µM | MDA-MB-435 > 100 µM | NCI-H460 > 100 µM | UO-31 > 100 µM | RPMI-8226 > 100 µM

S=C1NC2=C(COC/C2=C\c2ccccc2Cl)C(c2ccccc2Cl)N1 (configuration not stated)
inactive: EKVX 33.2 µM | SN12C 33 µM | UACC-257 56 µM | SK-MEL-5 15.6 µM | MDA-N 32.7 µM | KM12 11 µM | SR 2.84 µM | CAKI-1 73.8 µM | SF-268 51.4 µM | SNB-19 50.5 µM | OVCAR-5 > 100 µM | T47D 41.5 µM | LOX IMVI 21.2 µM | HL-60 11.4 µM | MDA-MB-435 25.7 µM | NCI-H460 18.8 µM | UO-31 19.5 µM | RPMI-8226 5.26 µM

CC(C)(C)c1cc(-c2ccc(-c3cc(C(C)(C)C)c(O)c(C(C)(C)C)c3)cc2)cc(C(C)(C)C)c1O
inactive: EKVX > 100 µM | SN12C > 100 µM | UACC-257 > 100 µM | A549 > 100 µM | SK-MEL-5 > 100 µM | SK-MEL-28 > 100 µM | MDA-N > 100 µM | KM12 > 100 µM | SR > 100 µM | CAKI-1 > 100 µM | SF-268 > 100 µM | SNB-19 > 100 µM | OVCAR-5 > 100 µM | T47D > 100 µM | LOX IMVI > 100 µM | HL-60 > 100 µM | MDA-MB-435 > 100 µM | UO-31 > 100 µM | RPMI-8226 > 100 µM

CN(C)Cc1cc(/N=N/c2ccc(Cl)c(Cl)c2)ccc1O
inactive: EKVX 12.6 µM | SN12C 14.7 µM | UACC-257 16.8 µM | A549 13.9 µM | SK-MEL-5 12.4 µM | SK-MEL-28 13.7 µM | MDA-N 11.4 µM | KM12 4.35 µM | SR 7.45 µM | CAKI-1 12.6 µM | SF-268 3.61 µM | SNB-19 13.6 µM | T47D 7 µM | LOX IMVI 3.4 µM | HL-60 2.52 µM | MDA-MB-435 11.7 µM | NCI-H460 6.35 µM | UO-31 2.49 µM | RPMI-8226 14.3 µM

CC(=O)c1sc(Nc2ccc(Cl)c(Cl)c2)nc1C
inactive: EKVX 5.64 µM | SN12C > 100 µM | UACC-257 68.5 µM | A549 96.6 µM | SK-MEL-5 > 100 µM | SK-MEL-28 > 100 µM | MDA-N > 100 µM | KM12 65.2 µM | SR 60.3 µM | CAKI-1 74.3 µM | SF-268 > 100 µM | SNB-19 > 100 µM | OVCAR-5 > 100 µM | T47D 40 µM | LOX IMVI > 100 µM | MDA-MB-435 > 100 µM | NCI-H460 > 100 µM | UO-31 > 100 µM | RPMI-8226 64.4 µM

COc1cc(-c2cc(=O)c3c(OC)c(OC)c(OC)c(OC)c3o2)cc(OC)c1OC [HEPATAMETHOXYFLAVONE]
inactive: EKVX 48.4 µM | SN12C 43.6 µM | UACC-257 40 µM | A549 35.5 µM | SK-MEL-5 12.4 µM | SK-MEL-28 53.2 µM | MDA-N 42.7 µM | SR > 100 µM | CAKI-1 21.6 µM | SF-268 32.9 µM | SNB-19 76.6 µM | OVCAR-5 > 100 µM | T47D 12.7 µM | LOX IMVI 25.9 µM | HL-60 15 µM | MDA-MB-435 29 µM | NCI-H460 42.3 µM | UO-31 7.38 µM | RPMI-8226 26.1 µM
